Broadly, the Km is the substrate concentration at which the rate is half of its maximum.

These results are taken from paper doi:10.1101/2022.01.13.476167v2 (biorxiv, 2022).

For this test, the system named is aPGA (Achromobacter spp. penicillin G acylase). Particulars: 0.05 M phosphate buffer, pH 8.0, 35 °C.

Turning to `CCCCCC(=O)N[C@H]1CCOC1=O` [C06-HSL], the Km amounted to 620 ± 100 µM. On to `CCCCCCCC(=O)N[C@H]1CCOC1=O` [C08-HSL], for which the Km was determined as 870 ± 10 µM.
